Assay results from ChEMBL document CHEMBL1212697, “High-content single-cell drug screening with phosphospecific flow cytometry” (Nat Chem Biol, 2008).
Each block holds one molecule with its values, some of them ahead of it.

How the values were obtained:
[1] = molecular target: T1, Janus Kinase (JAK) (Homo sapiens) (UniProt P52333+P23458+O60674+P29597); assay: Inhibition of JAK-mediated GM-CSF-induced Stat5 phosphorylation in human U937 cells by Phospho-Flow cytometry at 20 uM; assay type: cell-based; conditions: U-937
[2] = molecular target: T2, MAP kinase p38 (Homo sapiens, UniProt O15264+Q15759+Q16539+P53778); assay: Inhibition of anisomycin-induced p38 phosphorylation in human U937 cells by Phospho-Flow cytometry; assay type: cell-based; conditions: u-937
[3] = molecular target: T2, MAP kinase p38; assay: Inhibition of anisomycin-induced p38 phosphorylation in human U937 cells by Phospho-Flow cytometry at 20 uM; assay type: cell-based; conditions: U-937
[4] = molecular target: T1, Janus Kinase (JAK) (Homo sapiens); assay: Inhibition of JAK-mediated interferon-gamma-induced Stat1 phosphorylation in human U937 cells by Phospho-Flow cytometry at 20 uM; assay type: cell-based; conditions: U-937
[5] = Inhibition of JAK-mediated IL4-induced Stat5 phosphorylation in BALB/c mouse CD4+ T cells by Phospho-Flow cytometry; assay type: cell-based; conditions: T-cell
[6] = Inhibition of JAK-mediated interferon-gamma-induced Stat1 phosphorylation in BALB/c mouse […] T cells by Phospho-Flow cytometry; assay type: cell-based; conditions: T-cell
[7] = Inhibition of JAK-mediated IL4-induced Stat5 phosphorylation in BALB/c mouse B cells by Phospho-Flow cytometry; assay type: cell-based
[8] = Inhibition of JAK-mediated IL6-induced Stat1 phosphorylation in BALB/c mouse CD4+ T cells by Phospho-Flow cytometry; assay type: cell-based; conditions: T-cell
[9] = Inhibition of JAK-mediated IL7-induced Stat5 phosphorylation in BALB/c mouse CD4+ T cells by Phospho-Flow cytometry; assay type: cell-based; conditions: T-cell
[10] = Inhibition of JAK-mediated IL6-induced Stat3 phosphorylation in BALB/c mouse CD8+ T cells by Phospho-Flow cytometry; assay type: cell-based; conditions: T-cell
[11] = Inhibition of JAK-mediated IL6-induced Stat3 phosphorylation in BALB/c mouse CD11b-hi neutrophils by Phospho-Flow cytometry
[12] = Inhibition of JAK-mediated IL10-induced Stat3 phosphorylation in BALB/c mouse CD4+ T cells by Phospho-Flow cytometry; assay type: cell-based; conditions: T-cell
[13] = Inhibition of JAK-mediated interferon-gamma-induced Stat1 phosphorylation in BALB/c mouse CD11b-hi neutrophils by Phospho-Flow cytometry
[14] = Inhibition of JAK-mediated IL7-induced Stat5 phosphorylation in BALB/c mouse B cells by Phospho-Flow cytometry; assay type: cell-based
[15] = Inhibition of JAK-mediated IL6-induced Stat1 phosphorylation in BALB/c mouse CD8+ T cells by Phospho-Flow cytometry; assay type: cell-based; conditions: T-cell
[16] = Inhibition of JAK-mediated IL10-induced Stat3 phosphorylation in BALB/c mouse CD8+ T cells by Phospho-Flow cytometry; assay type: cell-based; conditions: T-cell
[17] = Inhibition of JAK-mediated IL7-induced Stat5 phosphorylation in BALB/c mouse CD11b-int macrophages by Phospho-Flow cytometry
[18] = Inhibition of JAK-mediated IL15-induced Stat5 phosphorylation in BALB/c mouse CD8+ T cells by Phospho-Flow cytometry; assay type: cell-based; conditions: T-cell
[19] = Inhibition of JAK-mediated IL4-induced Stat6 phosphorylation in BALB/c mouse CD8+ T cells by Phospho-Flow cytometry; assay type: cell-based; conditions: T-cell
[20] = Inhibition of JAK-mediated IL6-induced Stat1 phosphorylation in BALB/c mouse B cells by Phospho-Flow cytometry; assay type: cell-based
[21] = Inhibition of JAK-mediated IL15-induced Stat5 phosphorylation in BALB/c mouse B cells by Phospho-Flow cytometry; assay type: cell-based
[22] = Inhibition of JAK-mediated IL15-induced Stat5 phosphorylation in BALB/c mouse CD11b-int macrophages by Phospho-Flow cytometry
[23] = Inhibition of JAK-mediated IL7-induced Stat5 phosphorylation in BALB/c mouse CD8+ T cells by Phospho-Flow cytometry; assay type: cell-based; conditions: T-cell
[24] = Inhibition of JAK-mediated IL4-induced Stat5 phosphorylation in BALB/c mouse CD8+ T cells by Phospho-Flow cytometry; assay type: cell-based; conditions: T-cell
[25] = Inhibition of JAK-mediated IL10-induced Stat3 phosphorylation in BALB/c mouse CD11b-hi neutrophils by Phospho-Flow cytometry
[26] = Inhibition of JAK-mediated IL7-induced Stat5 phosphorylation in BALB/c mouse CD11b-hi neutrophils by Phospho-Flow cytometry
[27] = Inhibition of JAK-mediated IL10-induced Stat3 phosphorylation in BALB/c mouse CD11b-int macrophages by Phospho-Flow cytometry
[28] = Inhibition of JAK-mediated IL4-induced Stat5 phosphorylation in BALB/c mouse CD11b-int macrophages by Phospho-Flow cytometry
[29] = Inhibition of JAK-mediated interferon-gamma-induced Stat1 phosphorylation in BALB/c mouse CD11b-int macrophages by Phospho-Flow cytometry
[30] = Inhibition of JAK-mediated IL4-induced Stat6 phosphorylation in BALB/c mouse CD4+ T cells by Phospho-Flow cytometry; assay type: cell-based; conditions: T-cell
[31] = Inhibition of JAK-mediated IL6-induced Stat1 phosphorylation in BALB/c mouse CD11b-int macrophages by Phospho-Flow cytometry
[32] = Inhibition of JAK-mediated IL10-induced Stat3 phosphorylation in BALB/c mouse B cells by Phospho-Flow cytometry; assay type: cell-based
[33] = Inhibition of JAK-mediated interferon-gamma-induced Stat1 phosphorylation in BALB/c mouse CD4+ T cells by Phospho-Flow cytometry; assay type: cell-based; conditions: T-cell
[34] = Inhibition of JAK-mediated IL6-induced Stat3 phosphorylation in BALB/c mouse CD11b-int macrophages by Phospho-Flow cytometry
[35] = Inhibition of JAK-mediated IL6-induced Stat1 phosphorylation in BALB/c mouse CD11b-hi neutrophils by Phospho-Flow cytometry
[36] = Inhibition of JAK-mediated IL4-induced Stat5 phosphorylation in BALB/c mouse CD11b-hi neutrophils by Phospho-Flow cytometry
[37] = Inhibition of JAK-mediated IL15-induced Stat5 phosphorylation in BALB/c mouse CD4+ T cells by Phospho-Flow cytometry; assay type: cell-based; conditions: T-cell
[38] = Inhibition of JAK-mediated IL6-induced Stat3 phosphorylation in BALB/c mouse B cells by Phospho-Flow cytometry; assay type: cell-based
[39] = Inhibition of JAK-mediated IL4-induced Stat6 phosphorylation in BALB/c mouse CD11b-int macrophages by Phospho-Flow cytometry
[40] = Inhibition of JAK-mediated interferon-gamma-induced Stat1 phosphorylation in BALB/c mouse B cells by Phospho-Flow cytometry; assay type: cell-based
[41] = Inhibition of JAK-mediated IL15-induced Stat5 phosphorylation in BALB/c mouse CD11b-hi neutrophils by Phospho-Flow cytometry
[42] = Inhibition of JAK-mediated IL6-induced Stat3 phosphorylation in BALB/c mouse CD4+ T cells by Phospho-Flow cytometry; assay type: cell-based; conditions: T-cell

SMILES: COC1=C[C@]23CCCN2CCc2cc4c(cc2[C@@H]3[C@@H]1O)OCO4 [CEPHALOTAXINE]
inhibition [1]: 25% | IC50 [2]: 0.2 µM | inhibition [3]: 25% | inhibition [4]: > 65%

IC50 [5]: < 20 µM | IC50 [6]: < 20 µM | IC50 [7]: < 20 µM | IC50 [8]: < 20 µM | IC50 [9]: < 20 µM | IC50 [10]: < 20 µM | IC50 [11]: < 20 µM | IC50 [12]: < 20 µM | IC50 [13]: < 20 µM | IC50 [14]: < 20 µM | IC50 [15]: < 20 µM | IC50 [16]: < 20 µM | IC50 [17]: < 20 µM | IC50 [18]: < 20 µM | IC50 [19]: < 20 µM | IC50 [20]: < 20 µM | IC50 [21]: < 20 µM | IC50 [22]: < 20 µM | IC50 [23]: < 20 µM | IC50 [24]: < 20 µM | IC50 [25]: < 20 µM | IC50 [26]: < 20 µM | IC50 [27]: < 20 µM | IC50 [28]: < 20 µM | IC50 [29]: < 20 µM | IC50 [30]: < 20 µM | IC50 [31]: < 20 µM | IC50 [32]: < 20 µM | IC50 [33]: < 20 µM | IC50 [34]: < 20 µM | IC50 [35]: < 20 µM | IC50 [36]: < 20 µM | IC50 [37]: < 20 µM | IC50 [38]: < 20 µM | IC50 [39]: < 20 µM | IC50 [40]: < 20 µM | IC50 [41]: < 20 µM | IC50 [42]: < 20 µM
SMILES: C=CC(=O)c1ccc2ccccc2c1
